“Also recorded” adds a separate entry of the source. Numbered stars: 1 amine (or outer) side, 2 acyl side, 3 side chain; on linkers, the order of the positions; unused ones are H or OH. Bridge positions count the residues as written; N and C are the ends. Square brackets hold non-standard residues; d marks the D form. Peptide text beside a SMILES is read from it. I, II: the chains in the order shown. Actinocin(9to1) = Cc1c2oc3c(C)ccc(C(=O)[*:1])c3nc-2c(C(=O)[*:2])c(N)c1=O; NMeV = CN[C@H](C(=O)O)C(C)C; Sar = CNCC(=O)O
Experiments:
mature RGCs = conditions: previously reported; cited from earlier work
RGCs [1] = assay: RGC survival in primary retinal cultures; format: cell-based, rat
Protocol: (§1) Adult rat retinal cultures were prepared as described^21. […] One week later, retinas were dissected, dissociated, and the cells plated in defined, serum-free medium. Axon growth (% RGCs extending axons ≧30 μm, ≧70 μm or ≧140 μm in length) was evaluated after 3 d in quadruplicate samples in a blinded fashion. All experiments were repeated at least three separate times. In some instances, cells were immunostained with GAP-43 antibody (1:500, Chemicon).

RGCs [2] = assay: axon outgrowth in primary adult retinal cultures; format: cell-based, rat; conditions: for effect of inhibitor on oncomodulin-induced axon outgrowth: PD98059 5 μM, LY 294002 20 μM, Jaki 20 nM, KN92 10 μM, ActD 8 nM
Protocol: Protein A beads (Sigma) were incubated with either rabbit anti-OM antiserum (Swant) or normal rabbit serum (Invitrogen) for 16 h at 4° C. After extensive rinsing, beads with adsorbed IgGs were mixed with MCM (1 ml 10× concentrate, collected 8 h after zymosan treatment) for 24 h at 4° C. and then pelleted down by centrifugation. We tested 5 μl of the supernatants or untreated MCM for oncomodulin by western blotting. Bioactivity of immune-depleted and control MCM was tested in dissociated RGC cultures as described below at a 1:4 dilution, a concentration found to give a near-maximal response.
as §1

DRG neurons = assay: neurite outgrowth of DRG neurons cultured after intraganglionic injection in vivo; format: cell-based, rat; conditions: CSPG substrate
Protocol: L4-L5 DRGs from adult male Sprague-Dawley rats (250-300 g) were injected with 5 μl of saline or oncomodulin (200 ng μl^−1). After 7 d, injected ganglia were dissected and single-cell suspensions were prepared as described^50. Cells were cultured on laminin (Sigma) with or without CSPGs (Chemicon) for 20 h or 40 h. In some cases, chondroitinase ABC (0.5 U ml^−1, Seikagaku) was added. Neurite outgrowth was visualized by Tuj1 antibody to class III β-tubulin (1:5,000, Babco) and quantified in quadruplicate samples by a blinded observer. In other studies, L4-L5 DRG neurons were cultured in the presence of absence of oncomodulin, mannose and/or forskolin in RPMI-1640 to limit spontaneous outgrowth. Cells were fixed and immunostained after 3 d and evaluated for outgrowth.

| Compound | axon extension of mature RGCs in culture (mature RGCs) | effect of inhibitor on oncomodulin-induced axon outgrowth (RGCs [2]; KN93 10 μM) | other results |
| --- | --- | --- | --- |
| nerve growth factor | do not stimulate mature RGCs to extend axons | – | – |
| Lysozyme | – | – | diminished RGC survival (RGCs [1]; data not shown): ~25%; axon outgrowth from RGCs (RGCs [2]; data not shown): did not enhance outgrowth |
| calmodulin | – | – | axon outgrowth bioassay, Ca2+-binding proteins (RGCs [2]; 15 nM or tenfold higher concentration, forskolin and mannose present): inactive |
| interleukin-6 | do not stimulate mature RGCs to extend axons | – | – |
| COc1cccc(-c2cc(=O)c3ccccc3o2)c1N [PD98059, reference compound] | – | not blocked; also recorded: enhanced outgrowth slightly | – |
| chondroitinase ABC | – | – | DRG neurite outgrowth on nonpermissive substrate (DRG neurons): promoted some outgrowth |
| COc1ccc(S(=O)(=O)Nc2ccccc2CN(C)C/C=C/c2ccc(Cl)cc2)cc1 [KN92, reference compound] | – | did not substantially diminish outgrowth | – |
| CCCC(=O)Nc1ncnc2c1ncn2[C@@H]1O[C@@H]2COP(=O)(O)O[C@H]2[C@H]1OC(=O)CCC [dibutyryl cAMP, reference compound] | – | – | effect on oncomodulin-induced outgrowth (RGCs [2]; [dB-cAMP] above 250 μM): further increases diminished outgrowth; effect on oncomodulin-induced outgrowth (RGCs [2]; [dB-cAMP] up to 250 μM): enhanced the effect of oncomodulin |
| Cc1c2oc3c(C)ccc(C(=O)N[C@@H]4C(=O)N[C@H](C(C)C)C(=O)N5CCC[C@H]5C(=O)N(C)CC(=O)N(C)[C@@H](C(C)C)C(=O)O[C@@H]4C)c3nc-2c(C(=O)N[C@@H]2C(=O)N[C@H](C(C)C)C(=O)N3CCC[C@H]3C(=O)N(C)CC(=O)N(C)[C@@H](C(C)C)C(=O)O[C@@H]2C)c(N)c1=O [actinomycin D, reference compound] (I: T[dV]P[Sar][NMeV] / II: T[dV]P[Sar][NMeV]; ester I:1-I:C, II:1-II:C; linker I:N-II:N via Actinocin(9to1)) | – | blocked the effects of oncomodulin on outgrowth | RGC survival (RGCs [1]; retinal culture): without altering RGC survival |
| epidermal growth factor | do not stimulate mature RGCs to extend axons | – | – |
| CC(C)(C)c1nc2c3cc[nH]c(=O)c3c3cc(F)ccc3c2[nH]1 [Jaki, reference compound] | – | did not diminish oncomodulin's activity | – |
| COc1ccc(S(=O)(=O)N(CCO)c2ccccc2CN(C)C/C=C/c2ccc(Cl)cc2)cc1 [KN93, reference compound] | – | blocked the effect of oncomodulin fully | effect of inhibitor on outgrowth induced by forskolin plus mannose (RGCs [2]; KN93 10 μM, three inhibitors combined): without altering the effect of mannose and forskolin |
| fibroblast growth factor-2 | do not stimulate mature RGCs to extend axons | – | – |
